Data on 1 molecule can be found in patent US9126968B2, “Quinic acid derivative, process for preparation and uses thereof” (NATIONAL APPLIED RESEARCH LABORATORIES, priority 2013, dated 2015).

The conditions of series [1]: mouse, in vivo. The procedure: One of the four mice groups is treated with PBS, and three of the four groups are sensitized with OVA.
Series [2] can be described thus: single dose toxicity test. Particulars: mouse, in vivo, mice, read-out: maximum tolerance dose (MTD).
For series [3], the system named is OVA-sensitized mice. As to conditions: mouse, in vivo.
In series [4] the test system is IL-2 expressed from signal 2 pathway of T-cells. In words: in vitro IC50 measurement (reduction of IL-2). The series is classed as cell-based. As to conditions: T-cell; dosage causing 50% reduction of IL-2; FIG. 8; read-out: IC50 on blocking T-cell immune response. The source says: The IC50 represents the dosage which causes 50% reduction of IL-2 expressed from signal 2 pathway of T-cells.

The subject of series [5] is T-cells. Nature of the series: in vitro efficacy test: production of IL-2 from T-cells. The series is classed as cell-based. As to conditions: compared with cynarin; FIG. 6. The text has this: The production of IL-2 is reduced when the activation of T-cells is interfered.
Series [6] concerns OVA-sensitized mice. Nature of the series: in vivo animal test of immuno-suppressive effect (serum antibodies via ELISA). Particulars: OVA-sensitized BALB/c mice, serum on 14th day, FIG. 9. The procedure:
The four BALB/c mice groups are treated with phosphate-buffered saline (PBS), ovalbulmin (OVA), OVA/Cyn-1324 or OVA/cyclosporin A (CSA), respectively. CSA is used currently in clinics for suppressing immune response. The 14th-day from the treatments, the serum is collected, and the antibodies such as IgG and IgE are analyzed via ELISA. […] Accordingly, Cyn-1324 is effective for suppressing immune response.

In series [7] the target is CD28 of T-cells and CD80 of B-cells (Homo sapiens, UniProt P10747). Nature of the series: unbinding force test. Particulars: in the presence of Cyn-1324; about 41.9 pN in its absence; FIG. 7. It is filed as binding. The text has this:
In the absence of Cyn-1324, the average unbinding force is about 41.9 pN. Conversely, in the presence of Cyn-1324, the average unbinding force is reduced to about 29.1 pN. The results shown in FIG. 7 provide the physical evidence that Cyn-1324 repulses the binding between CD28 and CD80, thus blocking the signal 2 pathway induced by the interaction of CD28 and co-stimulatory molecules such as CD80 or CD86.

The test system of series [8] is T-cells. In words: in vitro cytotoxicity test (MTT assay). It is filed as cell-based. As to conditions: compared with cynarin, FIG. 5. Here is the method:
The amount of survival T-cells is measured by MTT assay. […] Conversely, they are less cytotoxic than cynarin.

In brackets after ≈: the same amount, converted by molar mass. Entries after “also recorded” stand apart in the source; their conditions may differ.

Sequence of CD28 of T-cells and CD80 of B-cells (P10747 19-220): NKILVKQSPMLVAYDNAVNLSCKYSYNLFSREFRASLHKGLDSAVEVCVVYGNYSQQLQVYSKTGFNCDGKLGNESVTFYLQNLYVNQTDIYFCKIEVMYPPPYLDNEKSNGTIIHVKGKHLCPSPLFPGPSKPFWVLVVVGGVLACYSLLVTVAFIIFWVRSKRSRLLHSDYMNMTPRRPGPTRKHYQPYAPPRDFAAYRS

Consider `CC(C)CNC(=O)[C@@]1(O)C[C@@H](O)[C@@H]2OC3(CCCCC3)O[C@@H]2C1` [Cyn-1324, (3aR,5R,7R,7aS)-5,7-dihydroxy-N-(2-methylpropyl)hexahydrospiro[1,3-benzodioxole-2,1′-cyclohexane]-5-carboxamide], for which the “body weight variation versus time” value in series [1] is reported as “steadily increased”. Besides, the MTD in series [2] was approximately 400 mg/kg. Besides, the “side effect: body swollen” value with OVA-sensitized mice [3] is “does not cause the similar side effect”. In series [4], the IC50 is approximately 20 µg/mL (≈ 61.1 µM). In the series on T-cells [5], the “efficacy to suppress T-cell activation (production of IL-2)” value is on record as “higher (or equal) efficacy; also recorded: high efficacy”. In the series on OVA-sensitized mice [6], the IgE decrease result was “about 23%” and the IgG decrease entry is recorded as “about 30%”. Further, the average unbinding force result in series [7] was “about 29.1 pN”. Also, the “cell survival rates of T-cells (cytotoxicity)” value in the series with T-cells [8] is reported as “higher than cynarin; also recorded: lowest cytotoxicity”.
